{
  "source": "patent US10913068B2",
  "about": "“Testing device, microfluidic chip and nucleic acid testing method” (Nanyang Technological University, priority 2015, dated 2021)",
  "key": {"ALT mRNA [1]": {"tested_on": "ALT mRNA", "settings": "for mean Ct (± S.D.), ALT: 3× dosage", "description": "(§1) A short-term (5 days) preclinical drug toxicity experiment was performed on common black laboratory mice (Strain name: C57BL/6J; Age: 5-7 weeks). All experiments were performed in accordance with the National Institutes of Health Guide for the care and use of laboratory animals (NIH Publications No. 80-23, revised 1996) and conducted after approval by the Institutional Animal Care and Use Committee of Houston Methodist Research Institute (HMRI).\n(§2) A total of eight mice were divided into two equal groups, with one mouse in each group designated as the control and the remaining three subjected to drug treatment. […] The drug was administered through intraperitoneal route, with the first group having a single dose administered on the 1st day only; and the second group having 3 doses administered on the 1st, 3rd and 5th days. The animals were subsequently euthanized following standard carbon dioxide anaesthesia procedure on the 5th day after final drug administration. The mouse liver tissues were thereafter silated, and cut into equal small pieces (˜20-30 mg) and stored in RNAlater RNA Stabilization Reagent (QIAGEN®, USA) at 4° C. to prevent RNA degradation.\n(§3) Once the purified mRNA had been extracted from the liver tissue samples, 30 μL of the purified mRNA extract (i.e. elution buffer with the microbeads) was collected in an EPPENDORF® tube containing the following RT-PCR composition: 75 μL 2× SYBR Green RT-PCR reaction mix (BIORAD®, Singapore), 3.0 μL iSCRIPT™ One-Step RT-PCR reverse transcriptase (BIORAD®, Singapore) and 42 μL nuclease-free water. This 150 μL final RT-PCR assay was subsequently transferred from the EPPENDORF® tube into a 250 μL HAMILTON® glass syringe connected to the RT-PCR microfluidic chip via a 1/32″ OD tubing.\n(§4) The chip-compatible thermal cycler was based on the open-source OpenPCR® (Chai Biotechnologies, USA) platform, using a custom-designed aluminium metal block for contact-based thermal cycling and an ARDUINO® microcontroller for precise temperature control (see FIG. 17—schematic diagram 1700 illustrating the multiplex microfluidic real-time RT-PCR setup).\n(§5) To provide a benchmark reference to the chip disclosed herein, the same RT-PCR assays (with addition of forward/reverse primers at 0.5 μM concentration) were amplified separately in EPPENDORF® tubes on a conventional CFX96 TOUCH™ Real-Time PCR Detection System (BIORAD®, USA).\n(§6) The thermal cycling process was as follows: 70° C. for 2 mins to allow dehybridization of the captured mRNA from the microbeads, followed by 50° C. for 10 minutes for reverse transcription, subsequently with an initial denaturation step of 95° C. for 5 mins and finally 35 cycles of PCR, comprising two stages: denaturation at 95° C. for 10 s and annealing/extension at 55° C. for 30 s.\n(§7) To enable simultaneous fluorescent detection of amplified cDNA for a fully-quantitative methodology, the inventors developed an image capturing system embodying a camera module with blue excitation LEDs to be mounted on the chip-compatible thermal cycler disclosed herein (FIG. 19—RT-PCR and fluorescent detection setup 1900). A 3MP CMOS camera with mounted 550 nm longpass optical filter (ISLAND OPTICAL SYSTEMS®, Singapore) was fitted onto a black opaque acrylic frame with a 470 nm blue LED module (IORODEO®, USA) to provide an excitation source for the SYBR Green 1 fluorescent dye present in the RT-PCR assay. The blue LED module was affixed at an angle of ˜45° to the plane of the microfluidic chip to minimize excitation light interference on the captured light pathway of the camera unit."}, "[2]": {"tested_on": "β-actin mRNA (housekeeping gene)", "settings": "3× dosage; conventional qPCR machine CFX96 Touch; control 22.93 ± 0.11", "description": "as §1, §2, §3, §4, §5, §6, §7"}, "AST mRNA [3]": {"tested_on": "AST mRNA", "settings": "for mean Ct (± S.D.), AST: 3× dosage", "description": "as §1, §2, §3, §4, §5, §6, §7"}, "ALT mRNA [4]": {"tested_on": "ALT mRNA", "settings": "mouse liver tissue", "description": "as §1, §2\n(§8) A liver tissue sample, weighing approximately 20-30 mg, was loaded directly into the tissue lysis chamber. The tissue sample was secured within the chamber when the tissue microhomogenizer attachment was fitted into the opening of the lysis chamber. Subsequently, 250 μL Lysis/Binding buffer was loaded into another 250 μL glass syringe (see FIG. 16, Sample Inlet), and actuated into the tissue lysis chamber at a flow rate of 200 μL/min. For tissue lysis, the microhomogenizer attachment was activated for ˜1 min to allow the liver tissue to be shredded and homogenized. After the completion of tissue lysis, the unwanted tissue debris and supernatant were removed by the micro-pillars as the homogenized tissue lysate was actuated into the mixing chamber, where the lysate was mixed with the microbeads for ˜8 mins to allow for mRNA binding.\n(§9) The purified mRNA from each mouse liver tissue sample was collected in an EPPENDORF® tube preloaded with an RT-PCR master mix. To validate the efficacy of our sample preparation microfluidic chip, purified mRNA solutions extracted using our microfluidic chip was tested for their purity using the NANODROP™ 2000 (THERMOSCIENTIFIC®, Singapore), to ensure an A260/280 ratio of ˜2.0-2.2 before proceeding to the subsequent downstream applications of RT-PCR and nucleic acid detection.\nas §3\n(§10) The chip-compatible thermal cycler was based on the open-source OpenPCR® (Chai Biotechnologies, USA) platform, using a custom-designed aluminium metal block for contact-based thermal cycling and an ARDUINO® microcontroller for precise temperature control (see FIG. 17—schematic diagram 1700 illustrating the multiplex microfluidic real-time RT-PCR setup). […]"}, "[5]": {"tested_on": "β-actin mRNA (housekeeping gene)", "settings": "after 1× and 3× drug dosage (200 mg/kg body wt.); mouse liver tissue", "description": "as §1, §2, §8, §9, §3, §10"}, "AST mRNA [6]": {"tested_on": "AST mRNA", "settings": "mouse liver tissue", "description": "as §1, §2, §8, §9, §3, §10"}, "[7]": {"settings": "3× dosage vs untreated control, Livak ΔΔCt method, normalized to β-actin, microfluidic data"}, "[8]": {"settings": "1× drug dosage (200 mg/kg body wt., intraperitoneal, day 1 only)"}, "[9]": {"settings": "3× drug dosage (200 mg/kg body wt., intraperitoneal, days 1, 3, 5), normalized to untreated control"}},
  "note": "Several values for one entry are separate records, joined by “and”; a condition that tells them apart may be missing. Equal values may be shown once. Read-outs that look alike come from different tables or passages of the source.",
  "data": [
    {"smiles": "O=P1(N(CCCl)CCCl)NCCCO1", "note": "(stereo not drawn) [cyclophosphamide]", "values": [
      {"measurement": "normalized fold change (up-regulation) for ALT", "setting": "ALT mRNA [1]; [7]", "result": 1.31, "unit": "fold"},
      {"measurement": "mean Ct (± S.D.), ALT", "setting": "ALT mRNA [1]; Microfluidic Chip, control 28.8 ± 0.2", "result": "28.5 and 28.5 ± 0.3"},
      {"measurement": "mean Ct (± S.D.), ALT", "setting": "ALT mRNA [1]; conventional qPCR machine CFX96 Touch, control 27.28 ± 0.10", "result": "26.75 ± 0.07"},
      {"measurement": "mean Ct (± S.D.), β-actin", "setting": "[2]", "result": "23.02 ± 0.08"},
      {"measurement": "normalized fold change (up-regulation) for AST", "setting": "AST mRNA [3]; [7]", "result": 1.62, "unit": "fold"},
      {"measurement": "mean Ct (± S.D.), AST", "setting": "AST mRNA [3]; Microfluidic Chip, control 20.5 ± 0.2", "result": "19.9 and 19.9 ± 0.2"},
      {"measurement": "mean Ct (± S.D.), AST", "setting": "AST mRNA [3]; conventional qPCR machine CFX96 Touch, control 20.07 ± 0.02", "result": "19.34 ± 0.05"},
      {"measurement": "difference in final cDNA concentration (ALT) compared to untreated control", "setting": "ALT mRNA [4]; [8]", "result": "no significant difference"},
      {"measurement": "increase in final cDNA concentration for ALT", "setting": "ALT mRNA [4]; [9]", "result": 33.3, "unit": "%"},
      {"measurement": "β-actin mRNA expression levels", "setting": "[5]", "result": "remained relatively unchanged"},
      {"measurement": "difference in final cDNA concentration (AST) compared to untreated control", "setting": "AST mRNA [6]; [8]", "result": "no significant difference"},
      {"measurement": "increase in final cDNA concentration for AST", "setting": "AST mRNA [6]; [9]", "result": 58.7, "unit": "%"}
    ]}
  ]
}
